Legend:
[1] = Urine flow rate during water-load; type: in vivo, rat; conditions: water-load (90 min) compared to baseline; rats, oral, two weeks
Method: After obtaining a set of baseline images, hypotonic glucose-saline (0.25% NaCl, 0.5% glucose) at 1.5 ml/100 g body weight/hr was infused intravenously via the femoral catheter for 2 hours to induce the water-diuresis.

[2] = system: PGE2; assay: Urinary PGE2 production levels; type: in vivo, rat; conditions: rats, oral, two weeks; naproxcinod 14.5 mg/kg, naproxen 10 mg/kg

Row | SMILES | Increase in urine flow during water-load (in words) [1] | Urinary PGE2 production levels (in words) [2]
1 | COc1ccc2cc([C@H](C)C(=O)OCCCCO[N+](=O)[O-])ccc2c1 [Naproxcinod, 4-(Nitrooxy)-butyl-(S)-2-(6-methoxy-2-naphthyl)-propanoate] | substantially less increase | reduced
2 | COc1ccc2cc([C@H](C)C(=O)O)ccc2c1 [Naproxen, naproxen] | substantially less increase | reduced

Source: patent US20080269323A1, “USE OF 4-(NITROOXY)-BUTYL-(S)-2-(6-METHOXY-2-NAPHTHYL)-PROPANOATE FOR TREATING PAIN AND INFLAMMATION” (NICOX S.A., priority 2007, published 2008)
